pKi: −log10 of the molar value.
What was measured:
[1] = target: T1, human dopamine D2L receptors (long isoform) (Homo sapiens, UniProt P14416); test: Dopamine D2L receptor binding, displacement of [125I] iodospiperone; settings: ratio Ki(D2L)/Ki(D3); HEK-293 membranes
T1 construct: expressed in transfected cells; host or cells: HEK-293 cells (membranes)
Description: (§1) The substance to be tested was either dissolved in methanol/Chremophor® (BASF-AG) or in dimethyl sulfoxide and then diluted with water to the desired concentration.
(§2) Each assay mixture was run in triplicate.
The incubation buffer contained 50 mM tris, 120 mM NaCl, 5 mM KCl, 2 mM CaCl2, 2 mM MgCl2 and 0.1% bovine serum albumin. The buffer was adjusted to pH 7.4 with HCl.
(§3) After having been incubated at 25° C. for 60 minutes, the assay mixtures were filtered through a Whatman GF/B glass fiber filter under vacuum using a cell collecting device. The filters were transferred to scintillation viols using a filter transfer system. After 4 ml of Ultima Gold® (Packard) have been added, the samples were shaken for one hour and the radioactivity was then counted in a Beta-Counter (Packard, Tricarb 2000 or 2200CA). The cpm values were converted into dpm using a standard quench series and the program belonging to the instrument.
(§4) The inhibition curves were analyzed by means of iterative nonlinear regression analysis using the Statistical Analysis System (SAS) which is similar to the “LIGAND” program described by Munson and Rodbard.

[2] = target: T2, human dopamine D3 receptors (Homo sapiens, UniProt P35462); test: Dopamine D3 receptor binding, displacement of [125I]-iodosulpride; settings: membranes of HEK-293 cells stably expressing human D3; 0.1 nM [125I]-iodosulpride
T2 construct: expressed in transfected cells; host or cells: HEK-293 cells (membranes)
T2 sequence (P35462 whole entry): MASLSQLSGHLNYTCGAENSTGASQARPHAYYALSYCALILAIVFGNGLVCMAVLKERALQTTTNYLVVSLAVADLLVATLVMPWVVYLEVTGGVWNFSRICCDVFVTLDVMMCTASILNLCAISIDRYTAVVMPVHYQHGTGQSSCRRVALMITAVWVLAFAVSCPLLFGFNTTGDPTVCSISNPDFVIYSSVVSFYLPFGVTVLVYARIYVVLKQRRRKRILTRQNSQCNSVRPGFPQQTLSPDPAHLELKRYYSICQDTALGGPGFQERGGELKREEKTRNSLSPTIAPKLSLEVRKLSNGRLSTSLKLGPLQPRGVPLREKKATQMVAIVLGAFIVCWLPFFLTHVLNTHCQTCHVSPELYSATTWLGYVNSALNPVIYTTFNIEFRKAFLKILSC
Description: as §1, §2
The incubation buffer contained 50 mM tris, 120 mM NaCl, 5 mM KCl, 2 mM CaCl2, 2 mM MgCl2 and 0.1% bovine serum albumin, 10 μM quinolone and 0.1% ascorbic acid (prepared fresh daily). The buffer was adjusted to pH 7.4 with HCl.
as §3, §4

T1 sequence (P14416 whole entry, canonical isoform): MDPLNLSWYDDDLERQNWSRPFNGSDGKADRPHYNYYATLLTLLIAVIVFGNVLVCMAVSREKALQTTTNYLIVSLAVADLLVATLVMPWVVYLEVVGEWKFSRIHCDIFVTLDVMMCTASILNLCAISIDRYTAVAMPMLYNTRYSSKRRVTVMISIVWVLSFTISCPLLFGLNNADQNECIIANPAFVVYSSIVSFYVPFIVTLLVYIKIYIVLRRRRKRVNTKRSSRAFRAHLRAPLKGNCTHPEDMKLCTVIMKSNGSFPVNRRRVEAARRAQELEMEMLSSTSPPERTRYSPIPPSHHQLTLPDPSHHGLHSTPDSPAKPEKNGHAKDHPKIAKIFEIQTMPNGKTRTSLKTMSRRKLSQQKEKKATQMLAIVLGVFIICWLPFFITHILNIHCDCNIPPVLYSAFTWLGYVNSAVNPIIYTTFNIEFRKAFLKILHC

With `Cc1nc(N2CCNCC2)ccc1NS(=O)(=O)c1ccc([C@H](C)C(F)F)cc1` [Example 9, 4-((S)-2,2-Difluoro-1-methyl-ethyl)-N-(2-methyl-6-piperazin-1-yl-pyridin-3-yl)-benzenesulfonamide] the “Selectivity vs. D2L, Ki(D2L)/Ki(D3)” value [1] was over 50 and the pKi [2] was over 8.00.
With `Cc1nc(N2CCNCC2)ccc1NS(=O)(=O)c1ccc([C@H](C)CF)cc1` [Example 6, 4-((S)-2-Fluoro-1-methyl-ethyl)-N-[2-methyl-6-piperazin-1-yl-pyridin-3-yl]-benzenesulfonamide] the “Selectivity vs. D2L, Ki(D2L)/Ki(D3)” value [1] was over 50 and the pKi [2] was over 8.00.
In the case of `COc1nc(N2CCNCC2)ccc1NS(=O)(=O)c1ccc([C@H](C)CF)cc1` [Example 15, 4-((S)-2-Fluoro-1-methyl-ethyl)-N-(2-methoxy-6-piperazin-1-yl-pyridin-3-yl)-benzenesulfonamide], the “Selectivity vs. D2L, Ki(D2L)/Ki(D3)” value [1] was over 50 and the pKi [2] was over 8.00.
`Cc1nc(N2CCNCC2)ccc1NS(=O)(=O)c1ccc([C@@H](C)C(F)F)cc1` [Example 10, 4-((R)-2,2-Difluoro-1-methyl-ethyl)-N-(2-methyl-6-piperazin-1-yl-pyridin-3-yl)-benzenesulfonamide] was tested, and the “Selectivity vs. D2L, Ki(D2L)/Ki(D3)” value [1] was over 50 and the pKi [2] was over 8.00.
`COc1nc(N2CCNCC2)ccc1NS(=O)(=O)c1ccc(C(C)C(F)(F)F)cc1` (centres unmarked) [Example 17, N-(2-Methoxy-6-piperazin-1-yl-pyridin-3-yl)-4-(2,2,2-trifluoro-1-methyl-ethyl)-benzenesulfonamide] was tested, and the “Selectivity vs. D2L, Ki(D2L)/Ki(D3)” value [1] was over 50 and the pKi [2] was over 8.00.
`Cc1nc(N2CCNCC2)ccc1NS(=O)(=O)c1ccc(C(C)C(F)F)cc1` (centres unmarked) [Example 8, 4-(2,2-Difluoro-1-methyl-ethyl)-N-(2-methyl-6-piperazin-1-yl-pyridin-3-yl)-benzenesulfonamide] was tested, and the “Selectivity vs. D2L, Ki(D2L)/Ki(D3)” value [1] was over 50 and the pKi [2] was over 8.00.
In the case of `COc1nc(N2CCNCC2)ccc1NS(=O)(=O)c1ccc([C@H](C)C(F)(F)F)cc1` [Example 18, N-(2-Methoxy-6-piperazin-1-yl-pyridin-3-yl)-4-((S)-2,2,2-trifluoro-1-methyl-ethyl)-benzenesulfonamide], the “Selectivity vs. D2L, Ki(D2L)/Ki(D3)” value [1] was over 50 and the pKi [2] was over 8.00.
`Cc1nc(N2CCNCC2)c(Br)cc1NS(=O)(=O)c1ccc([C@H](C)CF)cc1` [Example 7, N-(5-Bromo-2-methyl-6-piperazin-1-yl-pyridin-3-yl)-4-((S)-2-fluoro-1-methyl-ethyl)-benzenesulfonamide, reference compound] was tested, and the “Selectivity vs. D2L, Ki(D2L)/Ki(D3)” value [1] was over 10 and the pKi [2] was over 6.00.
`Cc1nc(N2CCNCC2)ccc1NS(=O)(=O)c1ccc([C@@H](C)C(F)(F)F)cc1` [Example 12, 4-((R)-2,2,2-Trifluoro-1-methyl-ethyl)-N-(2-methyl-6-piperazin-1-yl-pyridin-3-yl)-benzenesulfonamide] was tested, and the “Selectivity vs. D2L, Ki(D2L)/Ki(D3)” value [1] was over 50 and the pKi [2] was over 8.00.
With `Cc1nc(N2CCN[C@@H](C)C2)ccc1NS(=O)(=O)c1ccc([C@H](C)CF)cc1` [Example 1, 4-((S)-2-Fluoro-1-methyl-ethyl)-N-[2-methyl-6-((S)-3-methyl-piperazin-1-yl)-pyridin-3-yl]-benzenesulfonamide] the “Selectivity vs. D2L, Ki(D2L)/Ki(D3)” value [1] was over 50 and the pKi [2] was over 8.00.
In the case of `Cc1nc(N2CCNCC2)ccc1NS(=O)(=O)c1ccc(C(C)C(F)(F)F)cc1` (centres unmarked) [Example 11, 4-(2,2,2-Trifluoro-1-methyl-ethyl)-N-(2-methyl-6-piperazin-1-yl-pyridin-3-yl)-benzenesulfonamide], the “Selectivity vs. D2L, Ki(D2L)/Ki(D3)” value [1] was over 50 and the pKi [2] was over 8.00.
`COc1nc(N2CCNCC2)ccc1NS(=O)(=O)c1ccc(C(C)C(F)F)cc1` (centres unmarked) [Example 16, 4-(2,2-Difluoro-1-methyl-ethyl)-N-(2-methoxy-6-piperazin-1-yl-pyridin-3-yl)-benzenesulfonamide] was tested, and the “Selectivity vs. D2L, Ki(D2L)/Ki(D3)” value [1] was over 50 and the pKi [2] was over 8.00.
With `COc1nc(N2CCNCC2)ccc1NS(=O)(=O)c1ccc([C@@H](C)CF)cc1` [Example 14, 4-((R)-2-Fluoro-1-methyl-ethyl)-N-(2-methoxy-6-piperazin-1-yl-pyridin-3-yl)-benzenesulfonamide] the “Selectivity vs. D2L, Ki(D2L)/Ki(D3)” value [1] was over 50 and the pKi [2] was over 8.00.
`Cc1nc(N2CCNCC2)ccc1NS(=O)(=O)c1ccc([C@@H](C)CF)cc1` [Example 5, 4-((R)-2-Fluoro-1-methyl-ethyl)-N-[2-methyl-6-piperazin-1-yl-pyridin-3-yl]-benzenesulfonamide] was tested, and the “Selectivity vs. D2L, Ki(D2L)/Ki(D3)” value [1] was over 50 and the pKi [2] was over 8.00.
`Cc1nc(N2CCN[C@@H](C)C2)ccc1NS(=O)(=O)c1ccc([C@@H](C)CF)cc1` [Example 2, 4-((R)-2-Fluoro-1-methyl-ethyl)-N-[2-methyl-6-((S)-3-methyl-piperazin-1-yl)-pyridin-3-yl]-benzenesulfonamide] was tested, and the “Selectivity vs. D2L, Ki(D2L)/Ki(D3)” value [1] was over 50 and the pKi [2] was over 8.00.
In the case of `Cc1nc(N2CCNCC2)ccc1NS(=O)(=O)c1ccc([C@H](C)C(F)(F)F)cc1` [Example 13, 4-((S)-2,2,2-Trifluoro-1-methyl-ethyl)-N-(2-methyl-6-piperazin-1-yl-pyridin-3-yl)-benzenesulfonamide], the “Selectivity vs. D2L, Ki(D2L)/Ki(D3)” value [1] was over 50 and the pKi [2] was over 8.00.

Source: patent publication US20100210664A1, “BENZENESULFONAMIDE COMPOUNDS SUITABLE FOR TREATING DISORDERS THAT RESPOND TO MODULATION OF THE DOPAMINE D3 RECEPTOR” (priority 2007, published 2010)
